This is an account of results in patent publication US12644889B2, “Viral condensates and methods of use thereof” (Whitehead Institute for Biomedical Research, priority 2020, dated 2026).

This assay has as its target T1, SARS-CoV-2 nucleocapsid condensates (Severe acute respiratory syndrome coronavirus 2, UniProt P0DTC9).
T1 construct: Streptavidin tag (so in the source); made in house; host or cells: HEK cells
Briefly: drug partitioning assay in nucleocapsid condensates (confocal fluorescence microscopy). Particulars: in vitro condensates not containing DNA; 10 uM nucleocapsid, 10% PEG, 1-50 uM drug.

Each structure is given as a SMILES string.

For `O=C1c2c(O)ccc(O)c2C(=O)c2c(NCCNCCO)ccc(NCCNCCO)c21` [mitoxantrone], the “partitioning of drug into nucleocapsid condensates” value was “partitions into SARS-CoV-2 nucleocapsid condensates not containing DNA”.
